According to paper PMC12595476, “FibrilPaint to determine the length of Tau amyloids in fluids” (Proceedings of the National Academy of Sciences of the …, 2025):
Peptide text beside a SMILES is read from it. * marks the point of attachment. 5FAM = O=C1OC2(c3ccc(O)cc3Oc3cc(O)ccc32)c2ccc(C(=O)*)cc21

B1: Lecanemab: antibody approved to target Amyloid-β (Aβ) plaques (antibody, chains of the INN, looked up, V domains shown)
VH: EVQLVESGGGLVQPGGSLRLSCSASGFTFSSFGMHWVRQAPGKGLEWVAYISSGSSTIYYGDTVKGRFTISRDNAKNSLFLQMSSLRAEDTAVYYCAREGGYYYGRSYYTMDYWGQGTTVTVSS
VL: DVVMTQSPLSLPVTPGAPASISCRSSQSIVHSNGNTYLEWYLQKPGQSPKLLIYKVSNRFSGVPDRFSGSGSGTDFTLRISRVEAEDVGIYYCFQGSHVPPTFGPGTKLEIK

Experiments:
[1] = biological target: T1, TauRD monomers (Homo sapiens, UniProt P10636, DEL597-597); assay: Monolith (MST / spectral shift) binding to TauRD monomers; conditions: 50 nM FibrilPaint1, 37 °C, N = 3, unit inferred
T1 construct: We used Tau Repeat Domain (Q244-E372, TauRD) with the proaggregation mutation ΔK280; made in house; host or cells: E. coli BL21 Rosetta 2
Method: (§1) We confirmed that FibrilPaint1 binds specifically TauRD fibrils and not monomers by assessing binding affinity with monolith spectral shift analysis (Fig. 1 D and E). […] Since many monomers are needed to form one fibril, true affinity lies higher.
(§2) FibrilPaint1 (50 nM) was titrated with TauRD monomer or fibrils (0.5 nM to 10 µM) at 37 °C (Monolith NT.115); binding was extracted from the 5 s MST response.
(§3) Aragonès Pedrola, Dekker, et al. August 2025 FibrilPaint
(§4) FibrilRuler Test: Size measurement with Flow Induced Dispersion […]
(§5) Flow Induced Dispersion Analysis (FIDA) was used to determine fibril size. The FIDA experiments were performed using a FIDA1 with a 480 nm excitation source. […]
(§6) Data points were analysed using FIDAbio software, version 2.7. […]
(§7) Binding between FibrilPaint1 and TauRD monomers and fibrils was analyzed using Monolith (NanoTemper Technologies) Microscale thermophoresis system (MST). Thermophoresis was monitored at a concentration of 50 nM of FibrilPaint1 and a dilution series of the sample of interest, in 25 mM HEPES-KOH pH 7.5, 75 mM KCl, 75 mM NaCl. […]
(§8) Using equation 1, where L is the length and R the radius of the analysed particle, the mean length of the fibrils as function of Rh can be calculated.
(§9) As a model, PHF Fibril layers were stacked on top of each other using PyMOL software. […] Resulting structures were analysed for their Rh using FIDAbio hydrodynamic radii predictor.

[2] = biological target: T2, TauRD fibrils (Homo sapiens, UniProt P10636, DEL597-597); assay: Monolith (MST / spectral shift) binding to TauRD fibrils; conditions: based on monomer concentration; 50 nM FibrilPaint1, TauRD fibrils 0.5 nM to 10 µM, pH 7.5, 37 °C; N = 3
T2 construct: We used Tau Repeat Domain (Q244-E372, TauRD) with the proaggregation mutation ΔK280; made in house; host or cells: E. coli BL21 Rosetta 2
Method: as §1, §2, §3, §4, §5, §6, §7, §8, §9

[3] = FIDA: Rh of peptide alone (unbound); assay type: physicochemical; conditions: peptide not bound to anything
Text: (§10) Next, we screened the four FibrilPaint peptides for direct binding to TauRD fibrils. We developed an application of FIDA to determine the size of amyloid aggregates, called the FibrilRuler Test (Fig. 1B). FIDA is a recently established technique to measure size of protein complexes ([40], [41]). In FIDA, the detector records the fluorescence signal after passage of the sample through a long capillary. The sample passes a detector window, resulting in a size-dependent diffusion profile of the fluorescent compound. Smaller species diffuse faster and bigger ones slower, resulting in a narrow or broad dispersion of the fluorescent signal (Fig. 1B). Since FIDA readout relies on the physical diffusion properties of the sample, we can measure the hydrodynamic radius (Rh) of labeled species from the fluorescent signal ([42]–[44]). The Rh is a parameter corresponding to the size and shape of a molecule or a complex in solution. It is the radius of the sphere created by the tumbling particle. Rh values can be estimated from the structural coordinates, either by experimental methods or by predictions such as AlphaFold (SI Appendix, Table S2). For known structures, e.g., for many protein fibrils, an experimentally determined Rh value allows us to estimate the dimensions of the particle.
(§11) With this setup, we determined the Rh of FibrilPaint1 to 4 to be 1.7 nm each (SI Appendix, Table S1). The binding of the fluorescently labeled FibrilPaint peptide to protein fibrils increases the Rh value, as the peptide now tumbles together with the larger fibril (Fig. 1B). To measure the Rh of fibril complexes, we incubated preformed fibrils together with each of the four peptides in a 1:100 peptide:monomer ratio, using 200 nM peptide with fibrils made of 20 μM TauRD monomers.
(§12) Preformed or patient-derived fibrils (2 µM monomer) were mixed with 50 nM Fl-FibrilPaint1 and analyzed in capillary dissociation mode (25 °C, FIDA 1). […]
as §6

[4] = test system: TauRD (Tau Repeat Domain Q244-E372, ΔK280); assay: ThT assay of TauRD aggregation with titrated FibrilPaint peptides (ThT inhibition); assay type: biochemical, human; conditions: for ThT end-plateau / emitted ThT signal: 20 μM TauRD, 5 µM heparin, 45 µM ThT, peptide 2, 0.2, 0.02 µM, pH 7.4, 37 °C, triplicates, N = 3; for Tht inhibition: Yes/No, Suppl. Table S1
Text: We used Tau Repeat Domain (Q244-E372, TauRD) with the proaggregation mutation ΔK280 as a model for screening our FibrilPaint compounds. We performed a Thioflavin T (ThT) assay. ThT is an amyloid dye and provides a semiqualitative method used for the identification of amyloid structures in vitro and histology staining ([32], [33], [38]). A ThT assay is an established method to monitor protein fibrils formation, in which the fluorescent dye ThT emits fluorescence upon binding to fibrils ([38]). We identified 45 µM ThT as optimal concentration to study the kinetics of TauRD aggregation (SI Appendix, Fig. S1), in line with the literature ([39]).
Twenty µM TauRD + 5 µM heparin were incubated ± 45 µM ThT in 25 mM HEPES-KOH pH 7.4, 75 mM KCl/NaCl (37 °C). ThT fluorescence (440/485 nm) was recorded every 5 min for 24 h on a CLARIOstar® Plus; peptides were added as indicated. […]
Peptide synthesis and purification
The peptides were synthesized using a Liberty Blue Microwave-Assisted Peptide Synthesizer (CEM) with standard Fmoc chemistry and Oxyma/DIC as coupling reagents. The peptide concentrations were measured by UV spectroscopy. The peptides were labeled with 5(6)-carboxyfluorescein at their N’ termini. The peptides were cleaved from the resin with a mixture of 95% (v/v) trifluoroacetic acid (TFA), 2.5% (v/v) triisopropylsilane (TIS), 2.5% (v/v) triple distilled water (TDW) agitating vigorously for 3 hours at room temperature. The volume was decreased by N2 flux and the peptides precipitated by addition of 4 volumes of diethylether at -20 °C. The peptides were sedimented at -20 °C for 30 minutes, then centrifuged and the diethylether discarded. The peptides were washed three times with diethylether and dried by gentle N2 flux. The solid was dissolved in 1:2 volume ratio of acetonitrile (ACN):TDW, frozen in liquid Nitrogen and lyophilized.
The peptides were purified on a WATERS HPLC using a reverse-phase C18 preparative column with a gradient of ACN/TDW. The identity and purity of the peptides was verified by ESI mass spectrometry and Merck Hitachi analytical HPLC using a reverse-phase C8 analytical column.
Aggregation of 20 µM TauRD in 25 mM HEPES-KOH pH 7.4, 75 mM KCl, 75 mM
NaCl, ½ tablet/50 ml Protease Inhibitor, was induced by the addition 5 µM of heparin low molecular weight Impact of FibrilPaint peptides was assessed by adding 0.02, 0.2 or 2 µM of peptide.
Monitoring TauRD aggregation by thioflavin T (ThT) fluorescence
For monitoring the aggregation of TauRD by fluorescence, ThT was added to the aggregation mixture before addition of heparin. We used 45 µM ThT as standard condition, unless stated otherwise. […]. […]

[5] = biological target: T2, TauRD fibrils; assay: FIDA (FibrilRuler Test): binding to TauRD fibrils; conditions: detection of Tau amyloid fibrils with FIDA; Yes/No; Suppl. Table S1
Text: as §10, §11, §12, §6
Target sequence in this assay (P10636 with tags, fused parts or gaps isoform P10636-8 DEL280-280): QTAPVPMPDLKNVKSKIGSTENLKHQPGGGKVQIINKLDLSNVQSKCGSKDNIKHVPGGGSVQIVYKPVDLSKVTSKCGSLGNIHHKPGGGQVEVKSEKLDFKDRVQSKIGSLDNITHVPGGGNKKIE

[6] = test system: Amyloid-β (Aβ) plaques; conditions: in words; cited from earlier work
Text: The formation of amyloid fibrils is one of the earliest pathological hallmarks of neurodegenerative diseases ([3], [6], [12]–[15]). […] In AD, Aβ aggregation outside the cell precedes Tau aggregation inside the cell ([4], [13], [18]).

T1 sequence (P10636 with tags, fused parts or gaps isoform P10636-8 DEL280-280): as above

Molecule	Kd [1] [nM]	Kd [2] [nM]	Hydrodynamic radius (Rh) [3] [nm]	ThT end-plateau / emitted ThT signal [4]	Tht inhibition [4]	Fibril binding [5]	clinical effect [6]	risks [6]
CC(C)[C@H](NC(=O)[C@H](CCC(=O)O)NC(=O)[C@H](CCC(=O)O)NC(=O)[C@H](CO)NC(=O)CNC(=O)[C@H](CO)NC(=O)CNC(=O)[C@H](Cc1c[nH]cn1)NC(=O)[C@@H]1CCCN1C(=O)[C@H](Cc1c[nH]cn1)NC(=O)[C@H](Cc1c[nH]cn1)NC(=O)[C@H](Cc1c[nH]c2ccccc12)NC(=O)[C@@H]1CCCN1C(=O)[C@H](Cc1c[nH]c2ccccc12)NC(=O)[C@H](Cc1c[nH]c2ccccc12)NC(=O)[C@@H]1CCCN1C(=O)[C@H](CCCNC(=N)N)NC(=O)[C@H](CCCNC(=N)N)NC(=O)[C@H](Cc1c[nH]c2ccccc12)NC(=O)[C@H](Cc1c[nH]c2ccccc12)NC(=O)[C@@H]1CCCN1C(=O)c1ccc2c(c1)C(=O)OC21c2ccc(O)cc2Oc2cc(O)ccc21)C(=O)N[C@@H](CC(=O)O)C(=O)O [FibrilPaint1] (5FAM-PWWRRPWWPWHHPHGSGSEEVD-OH)	> 10000	1600	–	–	–	–	–	–
(Fl)-PWIRRPWWPWTTPTGSGSEEVD [FibrilPaint2, 22-residue fluorescein-labeled peptide]	–	–	1.7	lower the end-plateau in a dose-dependent manner	Yes	No	–	–
(Fl)-PWWDDPWWPWHHPHGSGSEEVD [FibrilPaint4, 22-residue fluorescein-labeled peptide]	–	–	1.7	lower the end-plateau in a dose-dependent manner	Yes	No	–	–
(Fl)-PWWDDPWWPWTTPTGSGSEEVD [FibrilPaint3, 22-residue fluorescein-labeled peptide]	–	–	1.7	lower the end-plateau in a dose-dependent manner	Yes	No	–	–
B1	–	–	–	–	–	–	modest	significant risks involved
